This note sets out measurements from publication PMC10004634 (PLOS ONE, 2023).

Some targets named below: BMPR2 (Homo sapiens, UniProt Q13873); EPHB1 (Homo sapiens, UniProt P54762); FLT3(ITD) (Homo sapiens, UniProt P36888, ITD); FYN (Homo sapiens, UniProt P06241); KIT(L576P) (Homo sapiens, UniProt P10721, L576P); TBK1 (Homo sapiens, UniProt Q9UHD2); TNNI3K (Homo sapiens, UniProt Q59H18); MERTK (Homo sapiens, UniProt Q12866); PDPK1 (Homo sapiens, UniProt O15530); BMPR1B (Homo sapiens, UniProt O00238).

What all share (assay): biochemical
Parameters in all cases: KINOMEscan scanMAX competition binding, DNA-tagged kinases, qPCR read-out, percent control at 300 nM
(In general: Quantitative PCR measures a nucleic acid by following its amplification.)

The next experiment deals with T1, ARK5 (Homo sapiens, UniProt O60285).
T1 construct: gene NUAK1

A further experiment deals with T2, CDK4-cyclinD3 (Homo sapiens, UniProt P11802).
T2 construct: cyclinD3

The next experiment has as its target T3, ERK2 (Homo sapiens, UniProt P28482).
T3 construct: gene MAPK1

A further experiment has as its target T4, ERK4 (Homo sapiens, UniProt P31152).
T4 construct: gene MAPK4

A further experiment concerns the target T5, LKB1 (Homo sapiens, UniProt Q15831).
T5 construct: gene STK11

The next experiment deals with T6, PKAC-alpha (Homo sapiens, UniProt P17612).
T6 construct: gene PRKACA

The target in the next experiment is T7, QSK (Homo sapiens, UniProt Q9Y2K2).
T7 construct: gene SIK3

The target of another experiment is T8, YSK4 (Homo sapiens, UniProt Q56UN5).
T8 construct: gene MAP3K19

The target in a further experiment is T9, MKK7 (Homo sapiens, UniProt O14733).
T9 construct: gene MAP2K7

Setting [1] is: read-out: Percent control / Acalabrutinib.
Setting [2] is: read-out: Percent control / Ibrutinib.
The mark [3] stands for this setting: read-out: Percent control / Tirabrutinib.
Where [4] appears, read: read-out: Percent control / Zanubrutinib.

Like-named read-outs stand apart in the source and are kept apart here.

TNNI3K, sequence (Q59H18 whole entry): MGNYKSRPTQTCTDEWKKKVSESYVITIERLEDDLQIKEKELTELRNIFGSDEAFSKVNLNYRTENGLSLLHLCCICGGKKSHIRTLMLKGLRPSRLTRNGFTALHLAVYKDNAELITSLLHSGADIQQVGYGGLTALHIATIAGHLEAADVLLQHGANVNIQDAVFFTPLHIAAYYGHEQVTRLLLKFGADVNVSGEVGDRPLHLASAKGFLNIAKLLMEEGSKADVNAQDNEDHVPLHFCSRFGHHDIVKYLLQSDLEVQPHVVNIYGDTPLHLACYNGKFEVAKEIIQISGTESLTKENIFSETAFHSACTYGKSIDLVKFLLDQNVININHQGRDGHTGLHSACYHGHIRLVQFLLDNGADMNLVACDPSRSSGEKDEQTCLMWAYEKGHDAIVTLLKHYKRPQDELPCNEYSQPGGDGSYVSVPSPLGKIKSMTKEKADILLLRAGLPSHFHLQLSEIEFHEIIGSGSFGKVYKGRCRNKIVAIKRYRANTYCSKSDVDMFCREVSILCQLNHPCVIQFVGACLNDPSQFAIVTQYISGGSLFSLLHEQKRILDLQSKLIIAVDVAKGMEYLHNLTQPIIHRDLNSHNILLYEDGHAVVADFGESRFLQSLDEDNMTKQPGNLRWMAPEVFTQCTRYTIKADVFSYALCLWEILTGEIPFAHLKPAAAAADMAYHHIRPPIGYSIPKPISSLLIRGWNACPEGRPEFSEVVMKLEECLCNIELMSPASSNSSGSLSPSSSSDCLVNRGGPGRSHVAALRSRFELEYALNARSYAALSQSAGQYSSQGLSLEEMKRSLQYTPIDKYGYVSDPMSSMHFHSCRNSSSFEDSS
TBK1, sequence (Q9UHD2 whole entry): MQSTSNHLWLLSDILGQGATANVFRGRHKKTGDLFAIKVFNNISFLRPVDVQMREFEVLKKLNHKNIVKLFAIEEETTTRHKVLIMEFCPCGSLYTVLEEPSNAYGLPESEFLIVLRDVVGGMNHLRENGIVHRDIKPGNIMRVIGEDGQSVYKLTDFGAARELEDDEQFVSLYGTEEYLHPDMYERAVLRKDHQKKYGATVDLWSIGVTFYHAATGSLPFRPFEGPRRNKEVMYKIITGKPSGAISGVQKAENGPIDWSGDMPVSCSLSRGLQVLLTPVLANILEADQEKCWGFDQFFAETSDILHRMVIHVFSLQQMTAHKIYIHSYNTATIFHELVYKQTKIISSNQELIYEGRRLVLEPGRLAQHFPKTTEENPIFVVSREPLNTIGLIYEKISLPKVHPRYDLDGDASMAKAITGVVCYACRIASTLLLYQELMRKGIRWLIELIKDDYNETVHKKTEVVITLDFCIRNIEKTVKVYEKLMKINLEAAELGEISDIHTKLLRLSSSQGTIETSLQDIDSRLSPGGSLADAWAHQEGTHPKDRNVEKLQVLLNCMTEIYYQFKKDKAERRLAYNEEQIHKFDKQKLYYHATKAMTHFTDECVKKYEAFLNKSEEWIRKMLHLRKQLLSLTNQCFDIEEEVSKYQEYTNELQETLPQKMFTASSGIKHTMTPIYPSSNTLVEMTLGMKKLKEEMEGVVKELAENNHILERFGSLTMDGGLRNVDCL
FLT3(ITD), sequence (P36888 564-993, stated change not applied): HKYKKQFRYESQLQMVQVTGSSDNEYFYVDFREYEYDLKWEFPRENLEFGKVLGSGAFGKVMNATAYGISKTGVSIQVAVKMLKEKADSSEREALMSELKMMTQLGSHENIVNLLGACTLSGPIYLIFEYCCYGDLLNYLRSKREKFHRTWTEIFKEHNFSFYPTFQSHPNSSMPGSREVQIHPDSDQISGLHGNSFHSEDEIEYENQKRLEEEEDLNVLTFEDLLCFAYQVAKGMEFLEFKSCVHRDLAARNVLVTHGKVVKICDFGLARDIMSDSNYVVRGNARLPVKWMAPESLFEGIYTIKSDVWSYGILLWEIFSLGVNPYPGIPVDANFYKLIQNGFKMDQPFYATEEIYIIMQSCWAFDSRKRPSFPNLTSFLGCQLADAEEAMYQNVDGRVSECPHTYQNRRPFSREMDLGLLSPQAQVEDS
KIT(L576P), sequence (P10721 whole entry L576P): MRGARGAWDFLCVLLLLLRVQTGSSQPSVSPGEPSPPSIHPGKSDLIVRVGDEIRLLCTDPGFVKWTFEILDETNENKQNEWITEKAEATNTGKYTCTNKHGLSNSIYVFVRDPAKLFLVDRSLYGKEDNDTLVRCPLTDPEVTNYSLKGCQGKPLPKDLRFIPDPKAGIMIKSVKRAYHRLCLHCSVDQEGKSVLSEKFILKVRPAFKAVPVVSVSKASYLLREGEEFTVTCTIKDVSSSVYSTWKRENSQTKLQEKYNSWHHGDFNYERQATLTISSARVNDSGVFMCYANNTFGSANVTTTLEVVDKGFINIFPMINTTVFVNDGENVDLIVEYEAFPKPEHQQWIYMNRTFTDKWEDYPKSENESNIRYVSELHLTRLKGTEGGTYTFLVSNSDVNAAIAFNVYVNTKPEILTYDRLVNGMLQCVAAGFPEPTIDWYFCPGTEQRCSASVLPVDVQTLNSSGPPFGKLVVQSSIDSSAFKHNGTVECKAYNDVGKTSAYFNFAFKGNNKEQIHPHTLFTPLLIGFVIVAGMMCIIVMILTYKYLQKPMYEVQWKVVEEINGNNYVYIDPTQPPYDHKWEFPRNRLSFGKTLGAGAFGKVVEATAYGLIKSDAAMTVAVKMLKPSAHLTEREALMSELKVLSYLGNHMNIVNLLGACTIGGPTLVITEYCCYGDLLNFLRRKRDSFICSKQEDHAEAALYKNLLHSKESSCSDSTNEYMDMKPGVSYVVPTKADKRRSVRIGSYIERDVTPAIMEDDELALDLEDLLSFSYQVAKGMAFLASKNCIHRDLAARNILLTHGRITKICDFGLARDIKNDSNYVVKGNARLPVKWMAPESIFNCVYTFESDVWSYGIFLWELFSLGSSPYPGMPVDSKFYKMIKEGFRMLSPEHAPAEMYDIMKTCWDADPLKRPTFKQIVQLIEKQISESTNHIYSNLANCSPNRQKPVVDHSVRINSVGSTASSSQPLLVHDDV
T9 sequence (O14733 whole entry): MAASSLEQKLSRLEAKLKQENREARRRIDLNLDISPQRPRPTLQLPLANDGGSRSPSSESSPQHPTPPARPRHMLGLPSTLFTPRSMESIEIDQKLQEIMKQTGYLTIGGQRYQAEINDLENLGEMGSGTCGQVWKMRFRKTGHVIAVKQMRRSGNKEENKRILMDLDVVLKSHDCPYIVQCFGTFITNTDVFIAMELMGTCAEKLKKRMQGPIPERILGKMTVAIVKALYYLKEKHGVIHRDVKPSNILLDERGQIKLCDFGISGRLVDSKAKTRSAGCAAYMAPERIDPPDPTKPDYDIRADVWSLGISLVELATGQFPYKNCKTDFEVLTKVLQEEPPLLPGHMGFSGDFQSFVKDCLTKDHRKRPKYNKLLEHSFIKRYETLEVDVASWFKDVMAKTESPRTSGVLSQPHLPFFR
T8 sequence (Q56UN5 whole entry): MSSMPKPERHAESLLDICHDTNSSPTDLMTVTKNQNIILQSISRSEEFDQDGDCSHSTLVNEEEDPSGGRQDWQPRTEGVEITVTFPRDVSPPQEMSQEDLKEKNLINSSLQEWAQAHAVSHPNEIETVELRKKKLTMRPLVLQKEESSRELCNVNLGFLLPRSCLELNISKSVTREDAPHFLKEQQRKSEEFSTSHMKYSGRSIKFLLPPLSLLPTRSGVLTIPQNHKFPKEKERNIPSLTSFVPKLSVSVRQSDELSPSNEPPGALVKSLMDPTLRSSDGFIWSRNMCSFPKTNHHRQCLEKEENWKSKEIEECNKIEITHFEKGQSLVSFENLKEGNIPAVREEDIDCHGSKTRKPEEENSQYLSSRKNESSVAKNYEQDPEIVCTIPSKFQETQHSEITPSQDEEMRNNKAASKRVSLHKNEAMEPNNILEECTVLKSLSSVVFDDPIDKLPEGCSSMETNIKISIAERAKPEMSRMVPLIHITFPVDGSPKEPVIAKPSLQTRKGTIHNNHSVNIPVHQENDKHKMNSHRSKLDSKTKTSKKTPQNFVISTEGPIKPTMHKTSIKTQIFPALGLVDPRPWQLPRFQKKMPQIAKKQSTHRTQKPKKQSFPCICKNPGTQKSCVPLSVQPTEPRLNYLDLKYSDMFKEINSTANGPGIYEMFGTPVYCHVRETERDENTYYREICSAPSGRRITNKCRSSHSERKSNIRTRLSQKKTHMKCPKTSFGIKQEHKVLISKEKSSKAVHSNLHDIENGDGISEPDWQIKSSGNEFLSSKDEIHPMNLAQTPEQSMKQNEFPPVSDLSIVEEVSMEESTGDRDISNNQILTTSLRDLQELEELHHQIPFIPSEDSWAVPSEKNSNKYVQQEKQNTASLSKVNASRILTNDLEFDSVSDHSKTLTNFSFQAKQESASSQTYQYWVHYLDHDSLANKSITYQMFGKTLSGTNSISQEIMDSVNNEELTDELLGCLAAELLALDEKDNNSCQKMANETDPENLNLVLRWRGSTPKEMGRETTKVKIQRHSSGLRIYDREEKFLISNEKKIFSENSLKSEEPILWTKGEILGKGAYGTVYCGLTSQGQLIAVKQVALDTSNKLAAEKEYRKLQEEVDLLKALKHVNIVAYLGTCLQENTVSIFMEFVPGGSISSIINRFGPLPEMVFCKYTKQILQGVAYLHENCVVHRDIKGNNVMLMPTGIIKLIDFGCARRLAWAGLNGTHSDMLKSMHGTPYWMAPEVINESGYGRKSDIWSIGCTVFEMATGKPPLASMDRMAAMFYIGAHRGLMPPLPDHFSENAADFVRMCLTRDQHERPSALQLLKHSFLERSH
T3 sequence (P28482 whole entry): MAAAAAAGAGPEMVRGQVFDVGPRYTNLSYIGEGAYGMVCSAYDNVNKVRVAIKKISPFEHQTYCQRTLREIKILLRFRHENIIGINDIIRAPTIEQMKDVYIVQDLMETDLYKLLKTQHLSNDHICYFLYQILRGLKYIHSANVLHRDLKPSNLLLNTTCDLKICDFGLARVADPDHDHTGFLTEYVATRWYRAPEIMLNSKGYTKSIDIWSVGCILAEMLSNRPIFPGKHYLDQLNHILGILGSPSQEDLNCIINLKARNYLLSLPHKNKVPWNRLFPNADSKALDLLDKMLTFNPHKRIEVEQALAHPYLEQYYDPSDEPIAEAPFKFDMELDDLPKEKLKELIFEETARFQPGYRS

On to `CC#CC(=O)N1CCC[C@H]1c1nc(-c2ccc(C(=O)Nc3ccccn3)cc2)c2c(N)nccn12` [Acalabrutinib], for which the remaining binding at 0.3 µM turned out to be 69% at ARK5 (setting [1]); 99% on BMPR2 (setting [1]); 97% on CDK4-cyclinD3 (setting [1]); 93% at EPHB1 (setting [1]); 96% at ERK2 (setting [1]); 96% on ERK4 (setting [1]). Besides, the remaining binding at 0.3 µM came to 85% at FLT3(ITD) (setting [1]); 95% at FYN (setting [1]); 86% at KIT(L576P) (setting [1]); 94% at LKB1 (setting [1]); 99% at PKAC-alpha (setting [1]); 90% at QSK (setting [1]). Further, the remaining binding at 0.3 µM on TBK1 (setting [1]) is 91%; at TNNI3K (setting [1]), 66%; at YSK4 (setting [1]), 74%.
Regarding `C=CC(=O)N1CCC[C@@H](n2nc(-c3ccc(Oc4ccccc4)cc3)c3c(N)ncnc32)C1` [Ibrutinib], the remaining binding at 0.3 µM at FYN (setting [2]) was 19%; at KIT(L576P) (setting [2]), 72%; at MERTK (setting [2]), 70%; at MKK7 (setting [2]), 8.1%; on PDPK1 (setting [2]) it was 99%.
In the case of `CC#CC(=O)N1CC[C@@H](n2c(=O)n(-c3ccc(Oc4ccccc4)cc3)c3c(N)ncnc32)C1` [Tirabrutinib], the results for the remaining binding at 0.3 µM at BMPR1B (setting [3]), at FLT3(ITD) (setting [3]) and at TNNI3K (setting [3]) were 98%, 82% and 91%, respectively.
Regarding `C=CC(=O)N1CCC([C@@H]2CCNc3c(C(N)=O)c(-c4ccc(Oc5ccccc5)cc4)nn32)CC1` [Zanubrutinib], the remaining binding at 0.3 µM on ARK5 (setting [4]) amounted to 94%; at BMPR1B (setting [4]), 98%; on BMPR2 (setting [4]), 93%; on CDK4-cyclinD3 (setting [4]) it was 98%; at EPHB1 (setting [4]), 96%; on ERK2 (setting [4]), 100%. Also, the remaining binding at 0.3 µM stood at 99% at ERK4 (setting [4]); 84% at LKB1 (setting [4]); 91% on MERTK (setting [4]); 80% at MKK7 (setting [4]); 100% at PDPK1 (setting [4]); 99% at PKAC-alpha (setting [4]). Further, the remaining binding at 0.3 µM came out at 45% at QSK (setting [4]), 93% at TBK1 (setting [4]) and 100% at YSK4 (setting [4]).
